Assay results from patent US9012611B2, “Use of 3,8,12,14, 17,20-oxo-substituted pregnene glycosides in the preparation of healthcare products, food additives and pharmaceuticals for the inhibition of appetite” (Institute of Materia Medica, Chinese Academy of Sciences, priority 2010, dated 2015).
Counter-ions that a name gives are not always drawn.

What was measured:
[1] = Animal test in vivo: average body weight; set-up: species or system rat; conditions: positive control 15 mg/kg
Procedure: (§1) 6-7 weeks-old female Wistar rat (purchased from Shanghai Laboratory Animal Center of Chinese Academy of Sciences)(weight: 110-150 g) was raised alone in suspended metal cage. After the experimental rat was obtained, it was checked to make sure whether they were abnormal or had obvious disease signs. The rat can freely obtain the drinking-water and feed for rodent (RM1(E)AQC). The feeding cage was controlled to receive 12 h illumination (from 07:00 to 19:00) and to be in a dark environment for 12 h, and the room temperature and relative humidity were controlled to be 21±3° C. and 55±15% respectively and not to deviate the upper and lower limit. The rats were randomly divided into groups depending on the body weight according to random number table to make the average weight in each group are approximately equal. Before the test, the rats were pre-trained suitably for one week (from −7th day to −1st day) during which the consumptions of feed and drinking water were recorded.
(§2) Each group of drug to be tested, positive control group, and blank control group consisted of 5 rats, respectively. The tested drug and positive control drug were mixed with wheaten starch before the administration and formulated to suspension with required doses according to 10 mL/kg of administration volume. The positive control drug was sibutramine hydrochloride and the administration dosage was 15 mg/kg body weight. In the blank control group, only equal amount of starch was used to formulate suspension for administration by […] in a same volume. The administration time is the 1st day, 2nd day and 3rd day. The body weight of the rat, the consumption of the feed (the weight of the feeding hopper) and consumption of the drinking water (bottle weight) were recorded from the −7th day to the 7th day.

[2] = test system: female Wistar rat; assay: Animal test in vivo: average food consumption (appetite inhibition); conditions: positive control 15 mg/kg
Procedure: as §1, §2

## CC(C)CC(N(C)C)C1(c2ccc(Cl)cc2)CCC1 (centres unmarked) [Positive control, sibutramine hydrochloride, reference compound]
[1]; 1st day (administration day), Table 3, crude extract 300 mg/kg, others 50 mg/kg
  Average body weight: 142.4 g
[1]; 1st day (administration day), Table 6, wilfosides 50 mg/kg
  Average body weight: 133.2 g
[1]; 2nd day (administration day), Table 3, crude extract 300 mg/kg, others 50 mg/kg
  Average body weight: 140 g
[1]; 2nd day (administration day), Table 6, wilfosides 50 mg/kg
  Average body weight: 128.4 g
[1]; 3rd day (administration day), Table 3, crude extract 300 mg/kg, others 50 mg/kg
  Average body weight: 141.6 g
[1]; 3rd day (administration day), Table 6, wilfosides 50 mg/kg
  Average body weight: 128.4 g
[1]; 4th day (after administration on days 1-3), Table 3, crude extract 300 mg/kg, others 50 mg/kg
  Average body weight: 146.8 g
[1]; 4th day (after administration on days 1-3), Table 6, wilfosides 50 mg/kg
  Average body weight: 132.4 g
[1]; 5th day (after administration on days 1-3), Table 3, crude extract 300 mg/kg, others 50 mg/kg
  Average body weight: 148.4 g
[1]; 5th day (after administration on days 1-3), Table 6, wilfosides 50 mg/kg
  Average body weight: 135.6 g
[1]; 6th day (after administration on days 1-3), Table 3, crude extract 300 mg/kg, others 50 mg/kg
  Average body weight: 153.6 g
[1]; 6th day (after administration on days 1-3), Table 6, wilfosides 50 mg/kg
  Average body weight: 138.4 g
[1]; 7th day (after administration on days 1-3), Table 3, crude extract 300 mg/kg, others 50 mg/kg
  Average body weight: 158.8 g
[1]; 7th day (after administration on days 1-3), Table 6, wilfosides 50 mg/kg
  Average body weight: 142 g
[1]; −1st day (before administration), Table 3, crude extract 300 mg/kg, others 50 mg/kg
  Average body weight: 154.8 g
[1]; −1st day (before administration), Table 6, wilfosides 50 mg/kg
  Average body weight: 145.6 g
[1]; −2nd day (before administration), Table 3, crude extract 300 mg/kg, others 50 mg/kg
  Average body weight: 152.8 g
[1]; −2nd day (before administration), Table 6, wilfosides 50 mg/kg
  Average body weight: 144.4 g
[1]; −3rd day (before administration), Table 3, crude extract 300 mg/kg, others 50 mg/kg
  Average body weight: 152 g
[1]; −3rd day (before administration), Table 6, wilfosides 50 mg/kg
  Average body weight: 140.8 g
[1]; −4th day (before administration), Table 3, crude extract 300 mg/kg, others 50 mg/kg
  Average body weight: 149.6 g
[1]; −4th day (before administration), Table 6, wilfosides 50 mg/kg
  Average body weight: 138 g
[1]; −5th day (before administration), Table 3, crude extract 300 mg/kg, others 50 mg/kg
  Average body weight: 145.6 g
[1]; −5th day (before administration), Table 6, wilfosides 50 mg/kg
  Average body weight: 135.6 g
[1]; −6th day (before administration), Table 3, crude extract 300 mg/kg, others 50 mg/kg
  Average body weight: 144.8 g
[1]; −6th day (before administration), Table 6, wilfosides 50 mg/kg
  Average body weight: 132.8 g
[1]; −7th day (before administration), Table 3, crude extract 300 mg/kg, others 50 mg/kg
  Average body weight: 140.4 g
[1]; −7th day (before administration), Table 6, wilfosides 50 mg/kg
  Average body weight: 132 g
[2]; 1st day (administration day), Table 1, crude extract 300 mg/kg, others 50 mg/kg
  Average food consumptions: 5.0 g
[2]; 1st day (administration day), Table 4, wilfosides 50 mg/kg
  Average food consumptions: 4 g
[2]; 2nd day (administration day), Table 1, crude extract 300 mg/kg, others 50 mg/kg
  Average food consumptions: 8.5 g
[2]; 2nd day (administration day), Table 4, wilfosides 50 mg/kg
  Average food consumptions: 7.6 g
[2]; 3rd day (administration day), Table 1, crude extract 300 mg/kg, others 50 mg/kg
  Average food consumptions: 13.0 g
[2]; 3rd day (administration day), Table 4, wilfosides 50 mg/kg
  Average food consumptions: 8.4 g
[2]; 4th day (after administration on days 1-3), Table 1, crude extract 300 mg/kg, others 50 mg/kg
  Average food consumptions: 14.0 g
[2]; 4th day (after administration on days 1-3), Table 4, wilfosides 50 mg/kg
  Average food consumptions: 10 g
[2]; 5th day (after administration on days 1-3), Table 1, crude extract 300 mg/kg, others 50 mg/kg
  Average food consumptions: 13.5 g
[2]; 5th day (after administration on days 1-3), Table 4, wilfosides 50 mg/kg
  Average food consumptions: 12.8 g
[2]; 6th day (after administration on days 1-3), Table 1, crude extract 300 mg/kg, others 50 mg/kg
  Average food consumptions: 14.5 g
[2]; 6th day (after administration on days 1-3), Table 4, wilfosides 50 mg/kg
  Average food consumptions: 14.4 g
[2]; 7th day (after administration on days 1-3), Table 1, crude extract 300 mg/kg, others 50 mg/kg
  Average food consumptions: 17.5 g
[2]; 7th day (after administration on days 1-3), Table 4, wilfosides 50 mg/kg
  Average food consumptions: 14.8 g
[2]; −1st day (before administration), Table 1, crude extract 300 mg/kg, others 50 mg/kg
  Average food consumptions: 14.5 g
[2]; −1st day (before administration), Table 4, wilfosides 50 mg/kg
  Average food consumptions: 13.2 g
[2]; −2nd day (before administration), Table 1, crude extract 300 mg/kg, others 50 mg/kg
  Average food consumptions: 14.5 g
[2]; −2nd day (before administration), Table 4, wilfosides 50 mg/kg
  Average food consumptions: 16 g
[2]; −3rd day (before administration), Table 1, crude extract 300 mg/kg, others 50 mg/kg
  Average food consumptions: 15.5 g
[2]; −3rd day (before administration), Table 4, wilfosides 50 mg/kg
  Average food consumptions: 12.8 g
[2]; −4th day (before administration), Table 1, crude extract 300 mg/kg, others 50 mg/kg
  Average food consumptions: 14.5 g
[2]; −4th day (before administration), Table 4, wilfosides 50 mg/kg
  Average food consumptions: 12.8 g
[2]; −5th day (before administration), Table 1, crude extract 300 mg/kg, others 50 mg/kg
  Average food consumptions: 14.5 g
[2]; −5th day (before administration), Table 4, wilfosides 50 mg/kg
  Average food consumptions: 14.8 g
[2]; −6th day (before administration), Table 1, crude extract 300 mg/kg, others 50 mg/kg
  Average food consumptions: 15.3 g
[2]; −6th day (before administration), Table 4, wilfosides 50 mg/kg
  Average food consumptions: 10.8 g
[2]; −7th day (before administration), Table 1, crude extract 300 mg/kg, others 50 mg/kg
  Average food consumptions: 11.5 g
[2]; −7th day (before administration), Table 4, wilfosides 50 mg/kg
  Average food consumptions: 10.4 g
